Assay results as given in ChEMBL document CHEMBL5543127, “Design, Synthesis, and Biological Evaluation of 2-Phenoxyalkylhydrazide Benzoxazole Derivatives as Quorum Sensing Inhibitors with Strong Antibiofilm Effect” (J Med Chem, 2024).
Converted amounts (≈) assume the structure as drawn. The source made the active and inactive calls. The calls are words filed in the database; no cut-off is given here.

Legend:
Bacillus subtilis = assay: Anti-microbial activity against Bacillus subtilis ATCC9372 incubated for 20 hrs By CLSI based micro-dilution method; assay type: functional
Bacillus pumilus = assay: Anti-microbial activity against Bacillus pumilus CMCC63202 incubated for 20 hrs By CLSI based micro-dilution method; assay type: functional
Staphylococcus aureus [1] = assay: Anti-microbial activity against erythromycin-susceptible Staphylococcus aureus ATCC25923 incubated for 20 hrs By CLSI based micro-dilution method; assay type: functional
Staphylococcus aureus [2] = assay: Anti-microbial activity against methicillin-resistant Staphylococcus aureus ATCC43300 incubated for 20 hrs By CLSI based micro-dilution method; assay type: functional
Pseudomonas aeruginosa [3] = assay: Anti-microbial activity against penicillin-susceptible Pseudomonas aeruginosa 27853 incubated for 20 hrs By CLSI based micro-dilution method; assay type: functional
Escherichia coli = assay: Anti-microbial activity against penicillin-susceptible Escherichia coli ATCC25922 incubated for 20 hrs By CLSI based micro-dilution method; assay type: functional
Pseudomonas aeruginosa [4] = assay: Anti-microbial activity against Pseudomonas aeruginosa PAO1 incubated for 20 hrs By CLSI based micro-dilution method; assay type: functional
[5] = Inhibition of quorum sensing system in Pseudomonas aeruginosa PAO1 at logarithmic growth period assessed as inhibition of pyocyanin production at 102.4 microg/ml incubated for 18 hrs by pyocyanin inhibition assay; details: dose 102.4 µg/ml
Pseudomonas aeruginosa [6] = assay: Inhibition of protease in logarithmic growth phase Pseudomonas aeruginosa PAO1 assessed as inhibition rate at 102.4 microg/ml measured after 32 hrs; details: dose 102.4 µg/ml

| SMILES | MIC (Bacillus subtilis) | MIC (Bacillus pumilus) | MIC (Staphylococcus aureus [1]) | MIC (Staphylococcus aureus [2]) | MIC (Pseudomonas aeruginosa [3]) | MIC (Escherichia coli) | MIC (Pseudomonas aeruginosa [4]) | inhibition [5] | inhibition (Pseudomonas aeruginosa [6]) |
| --- | --- | --- | --- | --- | --- | --- | --- | --- | --- |
| O=[N+]([O-])c1ccccc1/C=N/Nc1nc2ccccc2o1 | 512 µg/mL (≈ 1810 µM) | 256 µg/mL (≈ 907 µM) | 128 µg/mL (≈ 453 µM) | 256 µg/mL (≈ 907 µM) | > 512 µg/mL | > 512 µg/mL | 256 µg/mL (≈ 907 µM) | inactive | – |
| Cc1cccc2sc(NNC(=O)CCCCOc3ccc(Cl)cc3)nc12 | 512 µg/mL (≈ 1310 µM) | 512 µg/mL (≈ 1310 µM) | > 512 µg/mL | 512 µg/mL (≈ 1310 µM) | > 512 µg/mL | > 512 µg/mL | > 512 µg/mL | 42.2% | – |
| O=C(CCCCCOc1ccc(Cl)cc1)NNc1nc2ccccc2o1 | 512 µg/mL (≈ 1370 µM) | 256 µg/mL (≈ 685 µM) | 256 µg/mL (≈ 685 µM) | 256 µg/mL (≈ 685 µM) | 512 µg/mL (≈ 1370 µM) | > 512 µg/mL | > 512 µg/mL | inactive | – |
| Clc1ccc(/C=N/Nc2nc3ccccc3o2)cc1Cl | 512 µg/mL (≈ 1670 µM) | > 512 µg/mL | 64 µg/mL (≈ 209 µM) | 512 µg/mL (≈ 1670 µM) | > 512 µg/mL | > 512 µg/mL | > 512 µg/mL | inactive | – |
| Brc1ccccc1/C=N/Nc1nc2ccccc2o1 | 512 µg/mL (≈ 1620 µM) | > 512 µg/mL | 128 µg/mL (≈ 405 µM) | 256 µg/mL (≈ 810 µM) | > 512 µg/mL | > 512 µg/mL | > 512 µg/mL | inactive | – |
| O=C(CCCCCOc1ccc(F)cc1)NNc1nc2ccccc2o1 | 512 µg/mL (≈ 1430 µM) | > 512 µg/mL | 512 µg/mL (≈ 1430 µM) | > 512 µg/mL | 512 µg/mL (≈ 1430 µM) | > 512 µg/mL | > 512 µg/mL | inactive | – |
| O=C(NNc1nc2ccccc2s1)c1ccc(F)cc1 | 512 µg/mL (≈ 1780 µM) | > 512 µg/mL | > 512 µg/mL | 256 µg/mL (≈ 891 µM) | 512 µg/mL (≈ 1780 µM) | > 512 µg/mL | > 512 µg/mL | – | – |
| CCCCCCCCCC(=O)N/N=c1\sc2ccccc2n1C | 512 µg/mL (≈ 1540 µM) | > 512 µg/mL | 512 µg/mL (≈ 1540 µM) | > 512 µg/mL | > 512 µg/mL | > 512 µg/mL | > 512 µg/mL | Active | – |
| CCCCCCC(=O)N/N=c1\sc2ccccc2n1C | > 512 µg/mL | > 512 µg/mL | > 512 µg/mL | > 512 µg/mL | > 512 µg/mL | > 512 µg/mL | > 512 µg/mL | – | – |
| O=C(CCCOc1ccc(F)cc1)NNc1nc2ccccc2o1 | 512 µg/mL (≈ 1550 µM) | 256 µg/mL (≈ 777 µM) | 256 µg/mL (≈ 777 µM) | 256 µg/mL (≈ 777 µM) | 128 µg/mL (≈ 389 µM) | > 512 µg/mL | > 512 µg/mL | inactive | 30% |
| O=C(NNc1nc2ccccc2s1)c1cccc(Cl)c1 | 512 µg/mL (≈ 1690 µM) | 256 µg/mL (≈ 843 µM) | > 512 µg/mL | 128 µg/mL (≈ 421 µM) | 512 µg/mL (≈ 1690 µM) | > 512 µg/mL | > 512 µg/mL | – | – |
| CC[C@H]1OC(=O)[C@H](C)[C@@H](O[C@H]2C[C@@](C)(OC)[C@@H](O)[C@H](C)O2)[C@H](C)[C@@H](O[C@@H]2O[C@H](C)C[C@H](N(C)C)[C@H]2O)[C@](C)(OC)C[C@@H](C)C(=O)[C@H](C)[C@@H](O)[C@]1(C)O [CLARITHROMYCIN] | 0.25 µg/mL (≈ 0.334 µM) | 0.25 µg/mL (≈ 0.334 µM) | 0.25 µg/mL (≈ 0.334 µM) | 16 µg/mL (≈ 21.4 µM) | 128 µg/mL (≈ 171 µM) | 128 µg/mL (≈ 171 µM) | 256 µg/mL (≈ 342 µM) | – | – |
| COc1ccccc1C(=O)N/N=c1\sc2ccccc2n1C | > 512 µg/mL | > 512 µg/mL | > 512 µg/mL | > 512 µg/mL | > 512 µg/mL | > 512 µg/mL | > 512 µg/mL | – | – |
| Cc1cccc(C(=O)NNc2nc3ccccc3s2)c1 | 512 µg/mL (≈ 1810 µM) | 512 µg/mL (≈ 1810 µM) | > 512 µg/mL | > 512 µg/mL | 512 µg/mL (≈ 1810 µM) | > 512 µg/mL | > 512 µg/mL | 62.8% | – |
| O=C(CCCCCOc1cccc(F)c1)NNc1nc2ccccc2o1 | 512 µg/mL (≈ 1430 µM) | > 512 µg/mL | 256 µg/mL (≈ 716 µM) | > 512 µg/mL | 512 µg/mL (≈ 1430 µM) | > 512 µg/mL | > 512 µg/mL | inactive | – |
| COc1ccc(OCCCCCC(=O)NNc2nc3ccccc3o2)cc1 | 512 µg/mL (≈ 1390 µM) | 512 µg/mL (≈ 1390 µM) | 256 µg/mL (≈ 693 µM) | 512 µg/mL (≈ 1390 µM) | 512 µg/mL (≈ 1390 µM) | > 512 µg/mL | > 512 µg/mL | inactive | – |
| O=C(CCCOc1cccc(F)c1)NNc1nc2ccccc2o1 | > 512 µg/mL | > 512 µg/mL | > 512 µg/mL | > 512 µg/mL | 512 µg/mL (≈ 1550 µM) | > 512 µg/mL | > 512 µg/mL | inactive | 30% |
| CCCC(=O)N/N=c1\sc2ccccc2n1C | > 512 µg/mL | > 512 µg/mL | 512 µg/mL (≈ 2050 µM) | > 512 µg/mL | > 512 µg/mL | > 512 µg/mL | > 512 µg/mL | Active | – |
| CCCCC(=O)N/N=c1\sc2ccccc2n1C | > 512 µg/mL | > 512 µg/mL | 512 µg/mL (≈ 1940 µM) | > 512 µg/mL | > 512 µg/mL | > 512 µg/mL | > 512 µg/mL | Active | – |
| CCCCCCCC(=O)N/N=c1\sc2ccccc2n1C | > 512 µg/mL | > 512 µg/mL | > 512 µg/mL | > 512 µg/mL | > 512 µg/mL | > 512 µg/mL | > 512 µg/mL | – | > 20% |
| CCCCCC(=O)N/N=c1\sc2ccccc2n1C | > 512 µg/mL | > 512 µg/mL | 256 µg/mL (≈ 923 µM) | > 512 µg/mL | > 512 µg/mL | > 512 µg/mL | > 512 µg/mL | – | – |
| Cn1c(=NNC(=O)CCCCOc2ccc(F)cc2)sc2ccccc21 | 512 µg/mL (≈ 1370 µM) | 256 µg/mL (≈ 685 µM) | – | – | > 512 µg/mL | > 512 µg/mL | > 512 µg/mL | Active | – |
| CCCCCCCCC(=O)N/N=c1\sc2ccccc2n1C | > 512 µg/mL | > 512 µg/mL | > 512 µg/mL | > 512 µg/mL | > 512 µg/mL | > 512 µg/mL | > 512 µg/mL | Active | – |
| Cn1c(=NNC(=O)CCCCOc2ccc(Cl)cc2)sc2ccccc21 | 512 µg/mL (≈ 1310 µM) | 256 µg/mL (≈ 657 µM) | 256 µg/mL (≈ 657 µM) | – | > 512 µg/mL | > 512 µg/mL | > 512 µg/mL | Active | – |
| Cc1cccc(C(=O)N/N=c2\sc3ccccc3n2C)c1 | 512 µg/mL (≈ 1720 µM) | > 512 µg/mL | > 512 µg/mL | > 512 µg/mL | > 512 µg/mL | > 512 µg/mL | > 512 µg/mL | – | – |
| CC(C)c1ccc(/C=N/Nc2nc3ccccc3o2)cc1 | 512 µg/mL (≈ 1830 µM) | 512 µg/mL (≈ 1830 µM) | 64 µg/mL (≈ 229 µM) | 256 µg/mL (≈ 916 µM) | > 512 µg/mL | > 512 µg/mL | > 512 µg/mL | inactive | – |
| Cc1ccc(C(=O)N/N=c2\sc3ccccc3n2C)cc1 | > 512 µg/mL | > 512 µg/mL | > 512 µg/mL | > 512 µg/mL | > 512 µg/mL | > 512 µg/mL | > 512 µg/mL | – | – |
